Results taken from US20150283120A1, “ANTIBIOTIC METHODS AND COMPOSITIONS FOR BACTERIA INFECTIONS” (THE UNIVERSITY OF CHICAGO, priority 2012, published 2015).
Entries after “also recorded” stand apart in the source; their conditions may differ. Where a name gives a salt, the structure may show the parent alone.

Key:
Format in all cases: cell-based, Staphylococcus aureus
[1] = test system: MRSA strain USA300-isolate 923; experiment: Checkerboard MIC testing of compounds with oxacillin
vraR transcription = experiment: Tertiary screen: qRT-PCR of vraR in strain 923; conditions: for classification of lux screen result against qRT-PCR (true/false repressor or stimulator): in the presence of oxacillin; for Effect on vraSR Transcription: With oxacillin / Effect on vraSR Transcription: Compound alone: qRT-PCR of vraR; for Effect on vraSR Transcription: With oxacillin: compound 10 μM + oxacillin 2 μg/mL; for Effect on vraSR Transcription: Compound alone: compound 10 μM, no oxacillin
[2] = test system: vraSR transcription (Pvra::lux); conditions: compound 10 μM + oxacillin 2 μg/mL; for RL avg (relative luminescence): ratio of LU to oxacillin alone, four runs
Protocol: (§1) In the secondary screen each microtiter plate contained either cells in TSB alone (16 replicates), cells with oxacillin (2 μg/mL, 31 replicates), or cells with test compound and oxacillin (2 μg/mL, 49 wells). Each compound was assayed in four separate biological replicates.
(§2) All compounds classified in the primary screen as synergists that were vraSR-stimulating or -repressing (as shown in Table 8) were screened in a secondary assay for their effects on both growth and Pvra::lux induction by oxacillin. […] Each compound was tested four separate times at 10 μM in the presence of oxacillin (2 μg/mL) and luminescence was measured every 15 minutes. Relative growth (RG) and relative luminescence (RL) was calculated as the ratio between the OD600 or max LU value in the presence of compound and oxacillin over the average from pooled control values obtained from the same plate. […] Compounds that produced an average RG (ratio of the OD600 of the culture grown with test compound combined with oxacillin to that of oxacillin alone) of <0.8 were classified as oxacillin synergists or potentiators. The relative luminescence (RL) was the ratio of the LU produced in the presence of the test compound combined with oxacillin to that produced by oxacillin alone. Compounds were classified as “vraSR repressors” (mean RL of <0.8), “vraSR stimulators”, (mean RL>1.2), and “vraSR neutral” (mean RL between 0.80-1.2). […] In contrast, 34 compounds had no effect on growth in the presence of oxacillin (“un” in the OD600 category). Among the oxacillin potentiators, there were 2 vraSR stimulators, 3 vraSR neutral compounds and 10 vraSR repressors.

[3] = test system: MRSA strain USA300 Pvra-lux; conditions: compound 10 μM + oxacillin 2 μg/mL; for RG avg (relative growth): ratio of OD600 to oxacillin alone, four runs
Protocol: as §1, §2

VISA 2283 = experiment: microbe, parasite or virus in culture; conditions: vancomycin alone; for MIC Van: VISA 2283
Excerpt: (§3) As shown in the analysis of the checkerboard assays (Table 6), gossypol fully potentiated vancomycin (FIC i<0.5) in hVISA, VISA, VRS2 and VRS1. […] Clomiphene partially potentiated vancomycin in hVISA, VISA, and VRS1 and it fully potentiated in strain VRS2.

VRS1 = experiment: microbe, parasite or virus in culture; conditions: Staphylococcus aureus, read-out: MIC Van
Excerpt: as §3

VRS2 = experiment: microbe, parasite or virus in culture; conditions: Staphylococcus aureus, read-out: MIC Van
Excerpt: as §3

hVISA 2275 = experiment: microbe, parasite or virus in culture; conditions: Staphylococcus aureus, read-out: MIC Van
Excerpt: as §3

Structure (SMILES) | classification of lux screen result against qRT-PCR (true/false repressor or stimulator) (vraR transcription) | Effect on vraSR Transcription: With oxacillin (vraR transcription) | Effect on vraSR transcription [2] | RL avg (relative luminescence) [2] | OD600 category [3] | RG avg (relative growth) [3] | Effect on vraSR Transcription: Compound alone (vraR transcription) | other results
CC1=CC(=O)c2ccccc2C1=O [Menadione, 2-Methylnaphthalene-1,4-dione] | true vraSR expression repressors | vraR inhibitors; also recorded: repress | repress (“vraSR repressors” (mean RL of <0.8)) | 0.47 | inhibited (of <0.8 were classified as oxacillin synergists or potentiators) | 0.69 |  | oxacillin MIC ([1]; strain 923, Men 10.8 μM): 16 µg/mL; oxacillin MIC ([1]; strain 923, Men 12.3 μM): 16 µg/mL; oxacillin MIC ([1]; strain 923, Men 14.1 μM): 16 µg/mL; oxacillin MIC ([1]; strain 923, Men 16.1 μM): 2 µg/mL; oxacillin MIC ([1]; strain 923, Men 18.4 μM): 2 µg/mL; oxacillin MIC ([1]; strain 923, Men 21 μM): 2 µg/mL; oxacillin MIC ([1]; strain 923, Men 24 μM): 2 µg/mL; FICi (FIC index) with oxacillin ([1]; strain 923, in at least one combination (well)): > 0.5; MIC of oxacillin ([1]; strain 923, menadione at 16 μM): 2 µg/mL
CN[C@H](CC(C)C)C(=O)N[C@H]1C(=O)N[C@@H](CC(N)=O)C(=O)N[C@H]2C(=O)N[C@H]3C(=O)N[C@H](C(=O)N[C@H](C(=O)O)c4cc(O)cc(O)c4-c4cc3ccc4O)[C@H](O)c3ccc(c(Cl)c3)Oc3cc2cc(c3O[C@@H]2O[C@H](CO)[C@@H](O)[C@H](O)[C@H]2O[C@H]2C[C@](C)(N)[C@H](O)[C@H](C)O2)Oc2ccc(cc2Cl)[C@H]1O [vancomycin] |  |  |  |  |  |  |  | MIC (VISA 2283; Staphylococcus aureus, VISA, read-out: MIC Van, VISA 2283): 16 µg/mL; MIC Van (VISA 2283): 8 µg/mL; MIC Van (VISA 2283; listed as Van): 8 µg/mL; MIC (VRS1): 1020 µg/mL; MIC (VRS2): 16 µg/mL; MIC (hVISA 2275): 4 µg/mL
CO[C@H]1C[C@H](O[C@H]2[C@H](C)[C@@H](O[C@@H]3O[C@H](C)C[C@H](N(C)C)[C@H]3O)[C@@H](C)C[C@@]3(CO3)C(=O)[C@H](C)[C@@H](O)[C@@H](C)[C@@H](C)OC(=O)[C@@H]2C)O[C@@H](C)[C@@H]1O [Oleandomycin phosphate, (3R,5R,6S,7R,8R,11R,12S,13R,14S,15S)-14-((2S,3R,4S,6R)-4-(dimethylamino)-3-hydroxy-6-methyltetrahydro-2H-pyran-2-yloxy)-6-hydroxy-12-((2R,4S,5S,6S)-5-hydroxy-4-methoxy-6-methyltetrahydro-2H-pyran-2-yloxy)-5,7,8,11,13,15-hexamethyl-1,9-dioxaspiro[2.13]hexadecane-4,10-dione] | true vraSR expression repressors | repress | repress (“vraSR repressors” (mean RL of <0.8)) | 0.20 | inhibited (of <0.8 were classified as oxacillin synergists or potentiators) | 0.19 |  | 
C[C@H]1[C@H](C)CC[C@]2(C(=O)O)CC[C@]3(C)C(=CC[C@@H]4[C@@]5(C)CC[C@H](O)C(C)(C)[C@@H]5CC[C@]43C)[C@H]12 [Ursolic acid] |  |  | repress (“vraSR repressors” (mean RL of <0.8)) | 0.71 | inhibited (of <0.8 were classified as oxacillin synergists or potentiators) | 0.77 | stimulate | 
CC(=O)OCC1=C(C(=O)O)N2C(=O)[C@@H](NC(=O)Cc3cccs3)[C@H]2SC1 [Cephalothin sodium salt] |  |  | neutral (“vraSR neutral” (mean RL between 0.80-1.2)) | 0.36 | inhibited (of <0.8 were classified as oxacillin synergists or potentiators) | 0.45 | stimulate | 
CN(C)CCn1nnnc1SCC1=C(C(=O)O)N2C(=O)[C@@H](NC(=O)Cc3csc(N)n3)[C@H]2SC1 [Cefotiam hydrochloride] |  |  | neutral (“vraSR neutral” (mean RL between 0.80-1.2)) | 0.64 | inhibited (of <0.8 were classified as oxacillin synergists or potentiators) | 0.64 | stimulate | Effect on vraSR Transcription: With oxacillin (vraR transcription; hydrochloride): vraR activator
CCn1cc(C(=O)O)c(=O)c2cc(F)c(N3CCNCC3)cc21 [Norfloxacin, 1-ethyl-6-fluoro-4-oxo-7-piperazin-1-yl-1H-quinoline-3-carboxylic acid] | true vraSR expression repressors | repress | repress (“vraSR repressors” (mean RL of <0.8)) | 0.33 | inhibited (of <0.8 were classified as oxacillin synergists or potentiators) | 0.40 |  | change of the MIC of oxacillin with compound concentration ([1]; strain 923, checkerboard): dose dependent decrease
